Data on one compound can be found in patent US20260132123A1, “ABAD INHIBITOR COMPOUNDS” (UNIVERSITY COURT OF THE UNIVERSITY OF ST ANDREWS, priority 2021, published 2026).

A short description of data set [1]: Mouse hepatocyte stability. It is filed as in vitro ADME. Also on record: k: unit not given here. From the text:
Table 5: Initial mouse hepatocyte stability and plasma protein binding experiments were undertaken on some of the best exemplars from the representative series with AG18051 a previously published 17β-HSD10 inhibitor (C. R. Kissinger et al., J. Mol. Biol., 342 (2004), p. 943; Lim, Y.-A., Grimm, A., Giese, M. PLoS ONE (2011), 6, e28887.) Ref: shown for comparison. Where k=absorption rate constant Cl=clearance, T1/2=half-life, Heps=hepatocyte metabolism, PPB=plasma protein binding.

Data set [2] concerns SH-SY5Y (neuroblastoma cells). The settings on record: cited from earlier work.

Molecules are shown by their SMILES.

Take `O=C(C(c1ccccc1)n1cnc2[nH]ncc2c1=S)N1CCCCCC1` (centres unmarked) [AG18051, reference compound]: the “Heps Category” value in data set [1] (hepatocyte metabolism category, mouse) is listed as “High”. This compound showed a Cl in data set [1] (mouse hepatocytes, clearance) of 50.5 ml/minute/g liver. For the same compound, in data set [1] (mouse hepatocytes, half-life), the T1/2 came out at 6.58 min. For the same compound, in data set [1] (mouse hepatocytes, k=absorption rate constant (so in the source)), the k is on record as 0.11. Also, the “protection from Aβ mediated cytotoxicity” value in data set [2] is listed as “protect cultured SH-SY5Y cells from Aβ mediated cytotoxicity”.
